One data set has as its system A549 cells. Nature of the data set: Cell viability (MTS) of gRNA-targeted A549 cells. The format is cell-based, Human. The following applies: without any cisplatin exposure (0 uM), vs wildtype untransfected cells. An excerpt:
FIG. 4A-C: Lung adenocarcinoma cells targeting Exon 3, 4, 5 of NRF2 and assessment of chemotherapy response. (FIG. 4A) A549 cells were transfected with each respective gRNA. Genomic DNA from each cell population was isolated and amplified across exon 3, 4 or 5 of the NRF2 gene. Amplicons were sanger sequenced and analyzed for indels at the CRISPR target site. The graph presents the total editing efficiency listed as Indel and frameshifting indel % listed as FS. (FIG. 4B) Raw sequence files from cells targeted with gRNA 76 or gRNA 83 were aligned using the software program, DECODR, to display the indel pattern (listed as INDEL and %). […] Viability was measured via bioreduction of MTS to a formazan product. […] The average relative viability of cells in response to cisplatin is graphed above.
To assess CRISPR activity across various exons of NRF2, several gRNAs were designed along exon 3, 4 and 5 of the NRF2 gene in the A549 cell line. The A549 cells were transfected with each individually designed gRNA and cells were collected 72 hours after transfection. Genomic DNA was isolated, PCR amplified and Sanger sequenced. Editing activity was quantified using DECODR to deconvolute the indels present in at the cut site of each gRNA. […]

Another data set concerns Panc-1 cells. Nature of the data set: Cell viability with gemcitabine, CellTiter-Glo 2.0, Panc-1 cells. The format is cell-based, Human. The following applies: Panc-1 cells, in the absence of gemcitabine. The method, then: Wildtype and transfected Panc-1 cells were plated to 24 well plates (n=5) at 50,000 cells per well and placed in incubator for 24 hours. The cells were then treated with either Gemcitabine (Selleckchem, Cat. S1714) or DMSO (Thermo Fisher, Cat. D12345). Cells treated with Gemcitabine were treated at one of the following concentrations: 0 μM, 2.5 μM, 5 μM, 25 μM while cells treated with DMSO were treated at: 0%, 0.025%, 0.05%, or 0.25%. Cells remained in Gemcitabine or DMSO for 72 hours before being evaluated using CellTiter-Glo 2.0 Cell Viability Assay (Promega, Cat. G9241).
Since our long-term objective is to develop an effective genetic treatment that would augment standard care, we decided to examine the possibility that we could restore sensitivity to gemcitabine by genetic editing of NRF2 in gemcitabine resistant Panc1 cells. We are using gemcitabine as a selection system to determine if gene editing at some level, can help restore tumor cell killing. We established the kill curve of Panc1 unedited cells by gemcitabine under our standard reaction conditions to serve as a baseline. […] Again, after 72 hours, each cell population was exposed to gemcitabine for an additional 72 hours and thereafter cell viability of the treated and untreated cells was measured using the Cell Titer 2.0 viability assay (Promega, Madison, WI, USA). […]
In general terms: In ATP-based viability assays light output follows the ATP content of the culture.

As to “sg83: gRNA targeting exon 4 of NRF2; GTAGCCCCTGTTGATTTAGA CGG (guide GTAGCCCCTGTTGATTTAGACGG; listed as DNA, chemistry not given here)”, the viability entry in the data set on A549 cells is reported as “much lower viability”. Besides, the cell killing entry in the data set with Panc-1 cells is “approximately 40%”.

For the origin of these results see patent US20250319206A1, “CRISPR/CAS GENE EDITING OF NEH4 AND/OR NEH5 DOMAINS IN NRF2” (Christina Care Gene Editing Institute, Inc., priority 2024, published 2025).
